This note sets out measurements from patent publication US7576059B2, “Peptide derivatives” (Novo Nordisk A/S, priority 1995, dated 2009).

Residues, ends and D or L forms follow the SMILES beside them.

The nature of this data set: Determination of lipophilicity relative to human insulin (k′rel) by RP-HPLC. In kind it is physicochemical. The conditions noted are these: pH 7.3. How it is done: The lipophilicity of peptides and peptide derivatives relative to human insulin, k′rel, was measured on a LiChrosorb RP18 (5 μm, 4×250 mm) HPLC column by isocratic elution at 40° C. using mixtures of A) 0.1 M sodium phosphate buffer, pH 7.3, containing 10% acetonitrile, and B) 50% acetonitrile in water as eluents. The elution was monitored by following the UV absorption of the eluate at 214 nm. Void time, t0, was found by injecting 0.1 mM sodium nitrate. Retention time for human insulin, tinsulin, was adjusted to at least 2t0 by varying the ratio between the A and B solutions. k′rel=(tderivative−t0)/(tinsulin−t0).

Turning to `CCCC[C@H](NC=O)C(=O)N[C@@H](CC(C)C)C(=O)N[C@@H](Cc1ccccc1)C(=O)N[C@@H](CCCC)C(=O)N[C@@H](Cc1ccc(O)cc1)C(=O)N[C@@H](CCCCN)C(=O)O` [For-Nle-Leu-Phe-Nle-Tyr-Lys-OH] (HELM PEPTIDE1{[O=C[*:2]].[Nle].L.F.[Nle].Y.K}$$$$V2.0), the “lipophilicity relative to human insulin, k′rel” value is listed as 2.3.
With `CC(C)C[C@H](NC(=O)[C@H](Cc1ccccc1)NC(=O)CNC(=O)[C@@H](C)NC(=O)[C@@H](N)Cc1ccc(O)cc1)C(=O)N[C@@H](CCCCN)C(=O)O` [H-Tyr-D-Ala-Gly-Phe-Leu-Lys-OH] (HELM PEPTIDE1{Y.[dA].G.F.L.K}$$$$V2.0), for the setting “LiChrosorb RP18 HPLC, isocratic, 40° C., k′rel=(tderivative−t0)/(tinsulin−t0)”, the “lipophilicity relative to human insulin, k′rel” value is 3.0×10^−3.
